In patent US20140121178A1, “METHOD AND IMPROVED PHARMACEUTICAL COMPOSITION FOR IMPROVING THE ABSORPTION OF AN ESTER PRODRUG” (ACENDA PHARMA INC., priority 2011, published 2014):
Counter-ions that a name gives are not always drawn. Blank lines part the entries; values can stand above or below the compound they belong to.

What was measured:
[1] = Rat oral pharmacokinetics of capecitabine with or without triethyl citrate/triacetin; assay type: in vivo, rats; settings: capecitabine in rat plasma, capecitabine 5 mg/kg, triethyl citrate 22.5 mg/kg + triacetin 22.5 mg/kg where given
Method: In a rat study similar to the study described above, each rat received capecitabine (5 mg/kg) in DMSO or capecitabine (5 mg/kg) in DMSO/triethyl citrate (22.5 mg/kg)/triacetin (22.5 mg/kg).

[2] = Rat oral pharmacokinetics of capecitabine with or without triethyl citrate; assay type: in vivo, rats; settings: capecitabine in rat plasma, capecitabine 5 mg/kg, triethyl citrate 45 mg/kg where given
Method: Capecitabine is an ester prodrug, which is hydrolyzed mainly by CE2 in the GI track and CE1 in the liver and then converted by two enzymes to its active drug (5-fluorouracil) in the tumor after oral administration of capecitabine to cancer patients. […] Each rat received capecitabine (5 mg/kg) in DMSO or capecitabine (5 mg/kg) in DMSO/triethyl citrate (45 mg/kg).

[3] = Rat oral pharmacokinetics of clopidogrel bisulfate (3 mg/kg) with or without triethyl citrate/triacetin; assay type: in vivo, rats; settings: Sprague-Dawley, plasma
Method: Serial plasma samples were obtained from each rat and concentrations of clopidogrel and clopidogrel acid in the plasma samples were determined by LC-MS/MS.

in vivo = settings: male, Sprague-Dawley, rat, po, 30 mg/kg
Method: Male rats (Sprague-Dawley, 300-400 g) were surgically implanted with jugular-vein cannulas one day prior to dosing and fasted overnight (about 18-20 hours) prior to dosing. Water was available ad libitum throughout the experiment. Dosing solutions of olmesartan medoxomil (5 mg/ml) were prepared in a vehicle of DMSO/PEG400 (10/90, v/v) or DMSO/PEG400/triacetin (10/80/10, v/v). Single oral doses of the olmesartan medoxomil and olmesartan medoxomil/triacetin were each administered separately to a group of 3 male rats by gavage. Each rat received olmesartan medoxomil (5 mg/kg) in DMSO/PEG400 (10/90, v/v) or olmesartan medoxomil (5 mg/kg) in DMSO/PEG400/triacetin (10/80/10, v/v).
Blood samples (0.15 ml/rat) were collected from each rat via the jugular-vein cannula at 0, 0.25, 0.5, 1, 2, 4, 6, 8, and 24 hours after dosing. Plasma was separated from blood cells by centrifugation and frozen at −20° C. until analysis. […] A plasma concentration-time curve was plotted based on the obtained data.

[4] = Rat oral pharmacokinetics of olmesartan medoxomil with or without triacetin; assay type: in vivo, rats (Sprague-Dawley); settings: rats, oral administration, plasma LC-MS/MS
Method: Water was available ad libitum throughout the experiment. Dosing solutions of olmesartan medoxomil (5 mg/ml) were prepared in a vehicle of DMSO/PEG400 (10/90, v/v) or DMSO/PEG400/triacetin (10/80/10, v/v). […] Each rat received olmesartan medoxomil (5 mg/kg) in DMSO/PEG400 (10/90, v/v) or olmesartan medoxomil (5 mg/kg) in DMSO/PEG400/triacetin (10/80/10, v/v).

CE from porcine liver [5] = assay: In vitro CE-mediated hydrolysis of clopidogrel in the presence of triacetin, triethyl citrate or both; assay type: in vitro ADME; settings: Table 2
CE from porcine liver [6] = assay: In vitro CE-mediated hydrolysis of olmesartan medoxomil in the presence of ester excipients; assay type: in vitro ADME; settings: for effect on CE-mediated hydrolysis of olmesartan medoxomil (in words): compared with lecithin, Table 1; for preliminary screen of ester excipients for impeding hydrolysis of olmesartan medoxomil by CE in vitro: preliminary results
Method: Various known pharmaceutical ester excipients including triacetin, glyceryl tristearate, triethyl citrate, lecithin, tri-n-butyl citrate, acetyl triethyl citrate, and acetyl tri-n-butyl citrate were respectively tested to determine whether any of them impedes hydrolysis of olmesartan medoxomil by CE in vitro.
Test solutions (a) to (f) were prepared respectively as follows: (a) 10 μM of olmesartan medoxomil dissolved in 10% DMSO (dimethyl sulfoxide)/90% PEG400 (w/w, stability control); (b) 10 μM of olmesartan medoxomil dissolved in 10% DMSO/90% PEG400 (w/w, blank control) (c) 10 μM of olmesartan medoxomil dissolved in 10% DMSO/12% triacetin/78% PEG400 (w/w/w); (d) 10 μM of olmesartan medoxomil dissolved in 10% DMSO/12% triethyl citrate/78% PEG400 (w/w/w); (e) 10 μM of olmesartan medoxomil dissolved in 10% DMSO/12% lecithin/78% PEG400 (w/w/w); and (f) 10 μM of olmesartan medoxomil dissolved in 10% DMSO/6% triacetin/6% triethyl citrate/78% PEG400 (w/w/w/w).
CE from porcine liver (17 units/mg, available from Sigma-Aldrich) was dissolved in simulated intestinal fluid (SIF, pH=6.8) to yield a CE solution (17 units/ml). SIF was prepared by dissolving 0.6805 g of KH2PO4 and 0.0896 g of NaOH in 100 ml of de-ionized water.
Each 70 μl of olmesartan medoxomil solution (i.e., solutions (a)-(f)) was mixed with 70 μl of SIF and thereby forming mixtures (a) to (f). Each of the mixtures (a) to (f) was transferred to one well of a 96-well plate, and 60 μl each of the CE solution was added to respective wells containing mixtures (b) to (f) to initiate the reaction. In addition, sixty (60) μl of SIF without CE was added to mixture (a). This incubation mixture without CE was used as a stability control to determine the chemical stability of olmesartan medoxomil in the incubation mixture. The mixtures were incubated for 20 minutes under the air at 37° C. with constant shaking on a temperature-controlled heating block.
At the end of the 20-minute incubation, 100 μl of ice-cold acetonitrile was added to each well to terminate the reaction. Each mixture was vortexed and centrifuged at 15,000×g for 20 min at room temperature. The supernatants were tested in HPLC/UV analysis, in which the concentration of olmesartan medoxomil in each mixture was measured. Percentages (%) of olmesartan medoxomil remaining in the mixtures were calculated based on the obtained data.

[7] = mean n=3, read-out: AUC0-24 hr of capecitabine

Structure (SMILES): CC(=O)OCC(COC(C)=O)OC(C)=O [triacetin]
effect on CE-mediated hydrolysis of clopidogrel (in words) (CE from porcine liver [5]): retard CE-mediated hydrolysis of clopidogrel | effect on CE-mediated hydrolysis of olmesartan medoxomil (in words) (CE from porcine liver [6]): retards CE-mediated hydrolysis of olmesartan medoxomil | preliminary screen of ester excipients for impeding hydrolysis of olmesartan medoxomil by CE in vitro (CE from porcine liver [6]): promising candidates

Structure (SMILES): CCOC(=O)CC(O)(CC(=O)OCC)C(=O)OCC [triethyl citrate]
effect on CE-mediated hydrolysis of clopidogrel (in words) (CE from porcine liver [5]): retard CE-mediated hydrolysis of clopidogrel | effectiveness in impeding CE-mediated hydrolysis of clopidogrel compared with triacetin and lecithin (in words) (CE from porcine liver [5]): more effective in impeding CE-mediated hydrolysis of clopidogrel than triacetin and lecithin | effect on CE-mediated hydrolysis of olmesartan medoxomil (in words) (CE from porcine liver [6]): retards CE-mediated hydrolysis of olmesartan medoxomil | preliminary screen of ester excipients for impeding hydrolysis of olmesartan medoxomil by CE in vitro (CE from porcine liver [6]): promising candidates

The next lines start with the values.

Cmax ([1]; mean n=3): 8.9 ng/mL | Tmax ([1]; mean n=3): 0.4 h | AUC(0-t) [1, 7]: 15 ng·h/mL | Cmax ([2]; mean n=3): 11.8 ng/mL | Tmax ([2]; mean n=3): 0.8 h | AUC(0-t) [2, 7]: 34 ng·h/mL
Structure (SMILES): CCCCCOC(=O)Nc1nc(=O)n([C@@H]2O[C@H](C)[C@@H](O)[C@H]2O)cc1F [Capecitabine, capecitabine]

Cmax [3]: 0.8 ng/mL | Tmax [3]: 2.9 h | AUC(0-t) ([3]; read-out: AUC0-24 hr of clopidogrel): 2 ng·h/mL | AUC(0-t) (in vivo): 28 ng·h/mL | Cmax (in vivo): 7.3 ng/mL | Tmax (in vivo): 4.1 h
Structure (SMILES): COC(=O)[C@H](c1ccccc1Cl)N1CCc2sccc2C1 [Clopidogrel Bisulfate, clopidogrel bisulfate]

hydrolysis of olmesartan medoxomil to olmesartan after absorption [4]: completely hydrolyzed to olmesartan
Structure (SMILES): CCCc1nc(C(C)(C)O)c(C(=O)OCc2oc(=O)oc2C)n1Cc1ccc(-c2ccccc2-c2nnn[nH]2)cc1 [Olmesartan Medoxomil, olmesartan medoxomil]
